In article PMC10649961, “Novel Mitochondria-Targeted Amphiphilic Aminophosphonium Salts and Lipids Nanoparticles: Synthesis, Antitumor Activity and Toxicity” (Nanomaterials, 2023):
Like-named read-outs stand apart in the source and are kept apart here.

What was measured:
[1] = test system: A549; test: cells; details: Homo sapiens, A549, 48 h, read-out: Cytotoxic Effects (IC50)
[2] = test system: DU-145; test: cells; details: Homo sapiens, DU-145, 48 h
[3] = test system: SK-OV-3; test: cells; details: Homo sapiens, SK-OV-3, 48 h, read-out: Cytotoxic Effects (IC50)
[4] = test system: Hep G2; test: cells; details: Homo sapiens, HepG2, 48 h, read-out: Cytotoxic Effects (IC50)
[5] = test system: M-HeLa; test: cells; details: Homo sapiens, 48 h, read-out: Cytotoxic Effects (IC50)
[6] = test system: MCF-7; test: cells; details: Homo sapiens, MCF7, 48 h, read-out: Cytotoxic Effects (IC50)
[7] = test system: PANC-1; test: cells; details: Homo sapiens, PANC-1, 48 h, read-out: Cytotoxic Effects (IC50)
[8] = test system: HuTu 80; test: cells; details: Homo sapiens, HuTu80, 48 h, read-out: Cytotoxic Effects (IC50)
[9] = test system: T98G; test: cells; details: Homo sapiens, 48 h, read-out: Cytotoxic Effects (IC50)
[10] = test system: PC3
[11] = test system: PC3; test: cells; details: Homo sapiens, PC-3, 48 h, read-out: Cytotoxic Effects (IC50), PC3, MTT assay, 48 h
[12] = test system: DU-145
[13] = test system: Pseudomonas aeruginosa ATCC 9027; test: Antimicrobial activity, serial microdilutions, Pa; type: cell-based; parameters: key to Minimum Inhibitory Concentration (MIC) / Minimum bactericidal and fungicidal concentrations (MBC, MFC): – means non-active; details: for MBC: ATCC9027, read-out: Minimum bactericidal and fungicidal concentrations (MBC, MFC)
Description: (§1) The antimicrobial activity of test compounds was determined by serial microdilutions in 96-well plates using Mueller-Hinton broth for bacterial culture and Sabouraud broth for yeast culture. Cultures of Gram-positive bacteria were used in the experiment: Staphylococcus aureus ATCC 6538 P FDA 209P, Bacillus cereus ATCC 10702 NCTC 8035, Enterococcus faecalis ATCC 29212; Gram-negative bacteria: Escherichia coli ATCC 25922, Pseudomonas aeruginosa ATCC 9027; and yeast: Candida albicans ATCC 10231, purchased from the State Collection of Pathogenic Microorganisms and Cell Cultures “SCPM-Obolensk” (Obolensk, Russia). Methicillin-resistant strains of S. aureus (MRSA) were isolated from patients with chronic tonsillitis (MRSA-1) and sinusitis (MRSA-2) in the bacteriological laboratory of the Republican Clinical Hospital (Kazan, Russia). The experiments were carried out in triplicate.

[14] = test system: MRSA-2; test: Antimicrobial activity, serial microdilutions, MRSA-2; type: cell-based, S. aureus; details: Staphylococcus aureus; for MIC: read-out: Minimum Inhibitory Concentration (MIC); for MBC: read-out: Minimum bactericidal and fungicidal concentrations (MBC, MFC)
Description: as §1

[15] = test system: A549; details: reference normal cell line not marked at the place (ns cells)
[16] = test system: T98G
[17] = test system: MCF-7
[18] = test system: HuTu 80
[19] = test system: Candida albicans ATCC 10231; test: Antimicrobial activity, serial microdilutions, Ca; type: cell-based; parameters: key to Minimum Inhibitory Concentration (MIC) / Minimum bactericidal and fungicidal concentrations (MBC, MFC): – means non-active
Description: as §1

[20] = test system: Enterococcus faecalis ATCC 29212; test: Antimicrobial activity, serial microdilutions, Ef; type: cell-based; parameters: key to Minimum Inhibitory Concentration (MIC) / Minimum bactericidal and fungicidal concentrations (MBC, MFC): – means non-active; details: for MIC: ATCC29212, read-out: Minimum Inhibitory Concentration (MIC)
Description: as §1

[21] = test system: Hep G2
[22] = test system: MRSA-1; test: Antimicrobial activity, serial microdilutions, MRSA-1; type: cell-based, S. aureus; details: Staphylococcus aureus; for MIC: read-out: Minimum Inhibitory Concentration (MIC); for MBC: read-out: Minimum bactericidal and fungicidal concentrations (MBC, MFC)
Description: as §1

[23] = test system: Bacillus cereus ATCC 10702 NCTC 8035; test: Antimicrobial activity, serial microdilutions, Bc; type: cell-based; details: Bacillus cereus; for MIC: Bc, read-out: Minimum Inhibitory Concentration (MIC); for MBC: read-out: Minimum bactericidal and fungicidal concentrations (MBC, MFC)
Description: as §1

[24] = test system: PANC-1
[25] = test system: SK-OV-3; details: reference normal cell line not marked at the place (ns cells)
[26] = test system: Staphylococcus aureus ATCC 6538 P FDA 209P; test: Antimicrobial activity, serial microdilutions, Sa; type: cell-based; details: Staphylococcus aureus; for MIC: read-out: Minimum Inhibitory Concentration (MIC); for MBC: read-out: Minimum bactericidal and fungicidal concentrations (MBC, MFC)
Description: as §1

[27] = test system: Escherichia coli ATCC 25922; test: Antimicrobial activity, serial microdilutions, Ec; type: cell-based; details: Escherichia coli; for MIC: ATCC25922, read-out: Minimum Inhibitory Concentration (MIC); for MBC: ATCC25922, read-out: Minimum bactericidal and fungicidal concentrations (MBC, MFC)
Description: as §1

[28] = test system: M-HeLa; details: calculated relative to the cell line Chang liver (b)
[29] = calculated relative to the cell line WI38 (a)
[30] = read-out: Cytotoxic Effects (IC50), DU-145, MTT assay, 48 h
[31] = calculated relative to the cell line Chang liver (b)

Compound	IC50 [1]	IC50 [3]	IC50 [4]	IC50 [5]	IC50 [6]	IC50 [7]	IC50 [8]	IC50 [9]	IC50 [11]	IC50 [2, 30]	MBC ([13]; Pseudomonas aeruginosa)	MIC [14]	MBC [14]	selectivity index (SI) [15]	Minimum bactericidal and fungicidal concentrations (MBC, MFC) ([19]; Ca)	MIC ([20]; Enterococcus faecalis)	MIC [22]	MBC [22]	MIC [23]	MBC [23]	other results
COc1cccc2c1C(=O)c1c(O)c3c(c(O)c1C2=O)C[C@@](O)(C(=O)CO)C[C@@H]3O[C@H]1C[C@H](N)[C@H](O)[C@H](C)O1 [doxorubicin, reference compound]	700 ± 60 nM	6700 ± 500 nM	200 ± 10 nM	2100 ± 100 nM	400 ± 30 nM	2200 ± 100 nM	200 ± 10 nM	1000 ± 90 nM													IC50 ([2]; read-out: Cytotoxic Effects (IC50)): 300 ± 20 nM
CCCCCCCCC[P+](c1ccccc1)(c1ccccc1)N(CC)CC [6c, (Diethylamino)(nonyl)diphenylphosphonium iodide]	11400 ± 900 nM	12700 ± 1100 nM	6200 ± 500 nM	900 ± 70 nM	4200 ± 300 nM	1300 ± 100 nM	200 ± 10 nM	2400 ± 100 nM	1000 ± 80 nM	1300 ± 100 nM	250 ± 21 µM	3.9 ± 0.4 µM	7.8 ± 0.7 µM	ns (ns—no selectivity)	–	31.3 ± 5.4 µM	3.9 ± 0.3 µM	62.5 ± 5.4 µM	1.9 ± 0.1 µM	> 500 µM	selectivity index (SI) [10, 29]: 8.3; selectivity index (SI) [12, 29]: 6.4; MIC ([13]; Pseudomonas aeruginosa, ATCC9027, read-out: Minimum Inhibitory Concentration (MIC)): 250 ± 21 µM; selectivity index (SI) [16, 29]: 3.5; selectivity index (SI) [17, 29]: 2.0; selectivity index (SI) [18, 29]: 42; MIC ([19]; Candida albicans, ATCC10231, read-out: Minimum Inhibitory Concentration (MIC)): 500 ± 47 µM; Minimum bactericidal and fungicidal concentrations (MBC, MFC) [20]: –; selectivity index (SI) [21, 29]: 1.3; selectivity index (SI) [24, 29]: 6.4; selectivity index (SI) [25]: ns (ns—no selectivity); MIC [26]: 3.9 ± 0.3 µM; MBC [26]: 125 ± 11 µM; MIC [27]: 500 ± 46 µM; MBC [27]: 500 ± 47 µM
CCCCCCCCC[P+](c1ccccc1)(N(CC)CC)N(CC)CC [5c, Bis(diethylamino)(nonyl)(phenyl)phosphonium iodide]	8700 ± 700 nM	14800 ± 1200 nM	2300 ± 100 nM	1700 ± 100 nM	3100 ± 200 nM	2800 ± 200 nM	2800 ± 300 nM	2700 ± 300 nM	10000 ± 900 nM	900 ± 70 nM	> 500 µM	3.9 ± 0.4 µM	62.5 ± 5.4 µM	ns (ns—no selectivity)	–	31.3 ± 2.2 µM	3.9 ± 0.3 µM	62.5 ± 5.5 µM	3.9 ± 0.3 µM	500 ± 48 µM	selectivity index (SI) ([10]; reference normal cell line not marked at the place (ns cells)): ns (ns—no selectivity); selectivity index (SI) [12, 31]: 4.6; Minimum Inhibitory Concentration (MIC) [13]: –; selectivity index (SI) [16, 31]: 1.5; selectivity index (SI) [17, 31]: 1.3; selectivity index (SI) [18, 31]: 1.5; Minimum Inhibitory Concentration (MIC) ([19]; Ca): –; MBC ([20]; Enterococcus faecalis, ATCC29212, read-out: Minimum bactericidal and fungicidal concentrations (MBC, MFC)): 500 ± 48 µM; selectivity index (SI) [21, 31]: 1.8; selectivity index (SI) [28]: 2.4; selectivity index (SI) [24, 31]: 1.5; selectivity index (SI) [25]: ns (ns—no selectivity); MIC [26]: 3.9 ± 0.3 µM; MBC [26]: 125 ± 10 µM; MIC [27]: 250 ± 19 µM; MBC [27]: 500 ± 48 µM
